According to US4418079A, “Conjugated ketone compounds in preventing platelet thrombosis” (Sumitomo Chemical Company, Limited, priority 1978, dated 1983):
Converted amounts (≈) assume the structure as drawn. Counter-ions that a name gives are not always drawn. Like-named read-outs stand apart in the source and are kept apart here.

How the values were obtained:
[1] = test system: ADP induced platelet aggregation; experiment: In vitro inhibition of ADP induced platelet aggregation (aggregometer method of Born, modified by Mustard); format: cell-based, rabbit; conditions: Oryctolagus cuniculus
Method: (§1) The aggregometer method of Born [G. V. R. Born: J.Physiol., London, 162, 67 (1962)] as modified by Mustard et al. [J. F. Mustard et al.: J.Lab.Clin.Med., 64, 548 (1964)] was used to assess the in vitro activity of various compounds as to inhibition of collagen and adenosine diphosphate (ADP) induced platelet aggregation. Platelet rich plasma (PRP) was separated by centrifugation from citrated (3.8%) rabbit blood. ADP in final concentration of […] prepared according to the method described by Evans et al. [G. Evans et al.: J.Exp. Med., 128, 877 (1968)] was used to induce aggregation. The test compounds were dissolved in buffer solution so that 0.05 ml added to PRP would yield the desired test concentration. Vehicle control trials were done and compared with aggregation induced in platelet rich plasma containing various concentrations of the test compounds. Dose response curves were obtained, and 50% inhibitive concentration (IC50) values were calculated.

[2] = test system: collagen induced platelet aggregation; experiment: In vitro inhibition of collagen induced platelet aggregation (aggregometer method of Born, modified by Mustard); format: cell-based, rabbit; conditions: Oryctolagus cuniculus
Method: as §1

[3] = test system: Neuroleptic activity (Anti apomorphine test); experiment: Neuroleptic activity (anti apomorphine test); format: in vivo, rat; conditions: for neuroleptic activity, in words: rat, in vivo
Description: No. ED50 (rat, s.c., mg/kg)
*P. A. J. Janssen et al.: ArzneimittelForschung, 15, 104-117 (1965)

[4] = test system: collagen induced platelet aggregation; experiment: Ex vivo inhibition of collagen induced aggregation in PRP after oral administration to rats; conditions: Rattus norvegicus, PRP 1 hour after oral administration, read-out: ED50, 50% inhibition of the aggregation (collagen)
Method: (§2) The conjugated ketone compounds [I] were also tested ex vivo in rats where ADP or collagen was used to induce aggregation in PRP samples obtained 1 hour after oral administration. Blood was drawn after dosing and the procedure of platelet aggregation was the same as the in vitro experiments. Inhibitory values were calculated compared with the activity of PRP samples of vehicle treated rats. The dose required to produce 50% inhibition of the aggregation (ED50) was determined by dose response data obtained in this manner.

[5] = test system: blood platelet aggregation; experiment: Blood platelet anti-aggregation activity (general statements); format: cell-based, rabbit; conditions: compared with compound [A] / compounds of U.S. Pat. No. 4,012,515
Method: as §1

[6] = test system: ADP induced platelet aggregation; experiment: Ex vivo inhibition of ADP induced aggregation in PRP after oral administration to rats; conditions: Rattus norvegicus, PRP 1 hour after oral administration, read-out: ED50, 50% inhibition of the aggregation (ADP)
Method: as §2

[7] = in vitro, ADP, Table 2, read-out: Blood platelet aggregation inhibitory activity IC50, ADP
[8] = in vitro, Collagen, Table 2, read-out: Blood platelet aggregation inhibitory activity IC50, Collagen
[9] = in vitro, rabbit PRP, ADP induced, Table 1, read-out: Inhibitory activity IC50, ADP
[10] = in vitro, rabbit PRP, collagen induced, Table 1, read-out: Inhibitory activity IC50, Collagen

| SMILES | IC50 [1, 9] [µg/mL] | IC50 [2, 10] [µg/mL] | also measured |
| --- | --- | --- | --- |
| O=C(/C=C/CN1CCC(O)(c2cccc(C(F)(F)F)c2)CC1)c1ccc(F)cc1 [A, reference compound] |  |  | IC50 [1, 7]: 9 µg/mL (≈ 22.1 µM); IC50 [2, 8]: 3.5 µg/mL (≈ 8.59 µM); ED50 ([3]; Rattus norvegicus, sc, read-out: Neuroleptic activity (Anti apomorphine test) ED50): 0.1 mg/kg |
| CN(C)C/C=C/C(=O)c1ccccc1 [Compound 1] | 3.3 (≈ 17.4 µM) | 2 (≈ 10.6 µM) |  |
| CCN(C)C/C=C/C(=O)c1ccccc1 [Compound 2] | 3 (≈ 14.8 µM) | 2.2 (≈ 10.8 µM) |  |
| CCN(CC)C/C=C/C(=O)c1ccccc1 [Compound 3, N-(4-Phenyl-4-oxo-2-trans-butenyl)-N,N-diethylamine hydrobromide] | 3.3 | 1.5 | IC50 [1, 7]: 3.3 µg/mL; ED50 [4]: 3 mg/kg; IC50 [2, 8]: 1.5 µg/mL; blood platelet anti-aggregation activity, in words [5]: more potent than the compound [A] in blood platelet anti-aggregation activity; neuroleptic activity, in words [3]: does not produce any slight degree of neuroleptic activity; neuroleptic activity, in words ([3]; sc): No effect at 10 mg/kg; ED50 [6]: 0.3 mg/kg |
| CCCN(C/C=C/C(=O)c1ccccc1)CCC [Compound 4] | 2.5 (≈ 10.2 µM) | 1.3 (≈ 5.3 µM) |  |
| CC(C)N(C/C=C/C(=O)c1ccccc1)C(C)C [Compound 5] | 3.7 (≈ 15.1 µM) | 1.6 (≈ 6.52 µM) |  |
| CCCCN(C/C=C/C(=O)c1ccccc1)CCCC [Compound 6] | 5.2 (≈ 19 µM) | 2.7 (≈ 9.87 µM) |  |
| CN(C/C=C/C(=O)c1ccccc1)C12CC3CC(CC(C3)C1)C2 [Compound 7] | 3.6 (≈ 11.6 µM) | 2.4 (≈ 7.76 µM) |  |
| CN(C/C=C/C(=O)c1ccccc1)C1CCCCC1 [Compound 8] | 1.8 (≈ 6.99 µM) | 3.7 (≈ 14.4 µM) |  |
| O=C(/C=C/CN1CCCC1)c1ccccc1 [Compound 9] | 2.5 (≈ 11.6 µM) | 1.2 (≈ 5.57 µM) |  |
| O=C(/C=C/CN1CCCCC1)c1ccccc1 [Compound 10] | 5.2 (≈ 22.7 µM) | 3.2 (≈ 14 µM) | ED50 [4]: 2 mg/kg |
| CCN(CC)CC/C=C/C(=O)c1ccccc1 [Compound 11] | 6 (≈ 25.9 µM) | 1.8 (≈ 7.78 µM) |  |
| CCN(CC)C/C=C/C(=O)c1ccccc1Cl [Compound 12] | 3.1 (≈ 12.3 µM) | 2.8 (≈ 11.1 µM) |  |
| O=C(/C=C/CN1CCCCC1)c1cccc(Cl)c1 [Compound 13] | 3.1 (≈ 11.8 µM) | 3.1 (≈ 11.8 µM) |  |
| CCN(CC)C/C=C/C(=O)c1ccc(Cl)cc1 [Compound 14] | 1.6 (≈ 6.36 µM) | 2.5 (≈ 9.93 µM) |  |
| O=C(/C=C/CN1CCCCC1)c1ccc(Cl)cc1 [Compound 15] | 4.8 (≈ 18.2 µM) | 1.6 (≈ 6.07 µM) |  |
| O=C(/C=C/CN1CCCCC1)c1ccc(Br)cc1 [Compound 16] | 3.2 (≈ 10.4 µM) | 3 (≈ 9.73 µM) |  |
| CCN(CC)C/C=C/C(=O)c1ccc(C)cc1 [Compound 17] | 2.3 (≈ 9.94 µM) | 1.5 (≈ 6.48 µM) |  |
| Cc1ccc(C(=O)/C=C/CN2CCCCC2)cc1 [Compound 18] | 2 (≈ 8.22 µM) | 3.4 (≈ 14 µM) |  |

| SMILES | IC50 [1, 9] [µg/mL] | IC50 [2, 10] [µg/mL] | also measured |
| --- | --- | --- | --- |
| CCN(CC)C/C=C/C(=O)c1ccc(OC)cc1 [Compound 19] | 3.7 (≈ 15 µM) | 3.5 (≈ 14.2 µM) |  |
| CCN(CC)C/C=C/C(=O)c1ccc2c(c1)OCO2 [Compound 20] | 1.3 (≈ 4.97 µM) | 3.7 (≈ 14.2 µM) |  |
| CSc1ccccc1C(=O)/C=C/CN1CCCCC1 [Compound 21] | 3.2 (≈ 11.6 µM) | 3.7 (≈ 13.4 µM) |  |
| CSc1ccc(C(=O)/C=C/CN(C)C)cc1 [Compound 22] | 1.2 (≈ 5.1 µM) | 2.2 (≈ 9.35 µM) |  |
| CCN(CC)C/C=C/C(=O)c1ccc(SC)cc1 [Compound 23] | 1.4 (≈ 5.31 µM) | 2.4 (≈ 9.11 µM) |  |
| CCCN(C/C=C/C(=O)c1ccc(SC)cc1)CCC [Compound 24] | 3.6 (≈ 12.4 µM) | 2.6 (≈ 8.92 µM) |  |
| CSc1ccc(C(=O)/C=C/CN2CCCC2)cc1 [Compound 25] | 3 (≈ 11.5 µM) | 1.1 (≈ 4.21 µM) |  |
| CSc1ccc(C(=O)/C=C/CN2CCCCC2)cc1 [Compound 26] | 1.2 (≈ 4.36 µM) | 1.5 (≈ 5.45 µM) |  |
| CCN(CC)C/C=C/C(=O)c1ccccc1C(F)(F)F [Compound 27] | 3 (≈ 10.5 µM) | 4.2 (≈ 14.7 µM) |  |
| O=C(/C=C/CN1CCCCC1)c1ccc(C(F)(F)F)cc1 [Compound 28] | 2.7 (≈ 9.08 µM) | 3.1 (≈ 10.4 µM) |  |
| CCN(CC)C/C=C/C(=O)c1ccc2ccccc2c1 [Compound 29] | 1.25 (≈ 4.68 µM) | 1.7 (≈ 6.36 µM) |  |
| O=C(/C=C/CN1CCCCC1)c1ccc2ccccc2c1 [Compound 30] | 2.2 (≈ 7.87 µM) | 2.2 (≈ 7.87 µM) |  |
| CCN(CC)C/C=C/C(=O)c1ccco1 [Compound 31] | 3 (≈ 14.5 µM) | 1.8 (≈ 8.68 µM) |  |
| CCCCCCN(C)C/C=C/C(=O)c1ccco1 [Compound 32] | 4.5 (≈ 18 µM) | 5.8 (≈ 23.3 µM) |  |
| O=C(/C=C/CN1CCCCC1)c1ccco1 [Compound 33] | 3.8 (≈ 17.3 µM) | 2.2 (≈ 10 µM) |  |
| CCN(CC)C/C=C/C(=O)c1cccs1 [Compound 34] | 3 (≈ 13.4 µM) | 2.3 (≈ 10.3 µM) |  |
| O=C(/C=C/CN1CCCCC1)c1cccs1 [Compound 35] | 2.8 (≈ 11.9 µM) | 1.8 (≈ 7.65 µM) |  |
| O=C(/C=C/CN1CC2CCC(CC2)C1)c1ccccc1 [Compound 36] | 2.7 (≈ 10 µM) | 1.2 (≈ 4.45 µM) |  |
| COc1ccc(Cc2nccc3cc(OC)c(OC)cc23)cc1OC [Papaverine, reference compound] |  |  | IC50 ([1]; read-out: Inhibitory activity IC50, ADP): 65 µg/mL (≈ 192 µM); IC50 ([2]; read-out: Inhibitory activity IC50, Collagen): 60 µg/mL (≈ 177 µM) |
